Laboratory results published in patent US12090184B2, “Traditional Chinese medicine composition for treating dermatophytosis and bromhidrosis and application thereof” (JINGCHU UNIVERSITY OF TECHNOLOGY, priority 2019, dated 2024).

What was measured:
Type in all cases: cell-based
[1] = test system: Aspergillus fumigatus ATCC-MYA-3626; assay: in vitro anti-fungal test, 80% MIC (CLSI M-38P)
From the text: (§1) 1. The present disclosure conducts an in vitro anti-fungal test on the composition extracts in Examples 1 to 3, and the single radix sophorae flavescentis alkaloid and single peristrophe japonica extracts prepared in Example 3. The cell strains used in the test are all ATCC standard strains provided by the Fungi Center of the Medical Microbial (Virus) Species Collection and Management Center of the Ministry of Health, which includes as follows, Aspergillus: Aspergillus fumigatus Strain Number: CMCCC(F) A1g (ATCC-MYA-3626); Candida: Candida albicans Strain Number: CMCCC (F) C.1L (ATCC90028); Trichophyton: Trichophyton rubrum Strain Number: CMCCC(F)T.1h (ATCC-MYA-4438); Trichophyton mentagrophytes Strain Number: CMCCC(F)T.5e (ATCC-MYA-4439).
(§2) 2. The specific experimental methods are carried out with reference to the standard methods of yeast M-27A3 and filamentous fungi M-38P issued by the Clinical and Laboratory Standards Institute (US, CLSI) of the United States.
(§3) Before the experiment, after activating the experimental bacteria, yeast are cultured on Sabouraud Dextrose Agar(SDA) medium at 30° C. for 48 hours; filamentous fungi are cultured on potato dextrose agar (PDA) medium at 26° C. for 7 days to 10 days. A suspension is prepared with sterile normal saline, the suspension is counted by a hemocytometer, and is dilute with RMPI-1640 liquid medium containing 2% glucose in multiple amounts to Candida albicans 1.0×10^3 cfu/mL; the other three filamentous fungi are prepared into 2.5×10^4 cfu/mL. 0.1 mL of bacterial solutions are taken respectively, the culture medium containing the compositions prepared in Examples 1 to 3 and the same doses of the radix sophorae flavescentis alkaloids and the peristrophe japonica extracts prepared in Example 3 are added into each well, wherein the well 11 is a vehicle control, the well 12 is a medium control. 0.1 mL of the diluted solvent is added into the vehicle control well, and 0.1 mL of the distilled water is added into the control well. […]

[2] = test system: Trichophyton mentagrophytes ATCC-MYA-4439; assay: in vitro anti-fungal test, 80% MIC (CLSI M-38P)
From the text: as §1, §2, §3

[3] = test system: Trichophyton rubrum ATCC-MYA-4438; assay: in vitro anti-fungal test, 80% MIC (CLSI M-38P)
From the text: as §1, §2, §3

[4] = test system: Candida albicans ATCC90028; assay: in vitro anti-fungal test, 80% MIC (CLSI M-27A3)
From the text: as §1
2. […]
Before the experiment, after activating the experimental bacteria, yeast are cultured on Sabouraud Dextrose Agar(SDA) medium at 30° C. for 48 hours; filamentous fungi are cultured on potato dextrose agar (PDA) medium at 26° C. for 7 days to 10 days. A suspension is prepared with sterile normal saline, the suspension is counted by a hemocytometer, and is dilute with RMPI-1640 liquid medium containing 2% glucose in multiple amounts to Candida albicans 1.0×10^3 cfu/mL; the other three filamentous fungi are prepared into 2.5×10^4 cfu/mL. […]

SMILES: CCC(C)n1ncn(-c2ccc(N3CCN(c4ccc(OCC5COC(Cn6cncn6)(c6ccc(Cl)cc6Cl)O5)cc4)CC3)cc2)c1=O (stereo not shown) [Itraconazole]
- 80% MIC [1]: 4.2
- 80% MIC [2]: 5.8
- 80% MIC [3]: 5.6
- 80% MIC [4]: 3.8
